The values below come from patent US5958770A, “Glycoalkaloids” (priority 1990, dated 1999).

For assay [1], the system named is human spermatozoa. Description: Immobilization of spermatozoa. The format is cell-based. Conditions: for effect on spermatozoa (words): solamargine/eosin, FIG. 5. Here is the method: In order to observe any immobilization of spermatozoa, sperm (10×10^6 /ml) (50 μl) were placed on a microscope slide separated from 50 μl of solamargine (1 mg/ml) by 5 μl of eosin. A cover slip was then placed over the slide. […] This is a standard method known in the art. It was noted that sperm was not present on the side of the slide where the drop of solasodine glycosides was placed.

In assay [2] the test system is HeLa cells. The assay is described as follows: Solamargine cytotoxicity in presence and absence of carbohydrates, HeLa cells. The format is cell-based, human. Conditions: Homo sapiens, HeLa, solamargine 2.4 μM/L, read-out: Percentage Survival. Here is the method: A mixture of solasodine glycosides (BEC), of which the active compound is solamargine and from which the aglycone solasodine is derived was prepared for use in cytotoxicity assays as determined by the uptake of tritiated thymidine. Inhibition studies were carried out with lactose, lactosyl-albumin, galactose or rhamnose (Sigma Chemical Co., USA). All experimental replicates were related to their own controls. Total volume of replicates was 250 μl (carbohydrates added in 50 μl tissue culture media+10% fetal calf serum), and the cell concentrations were 8×10^4 /ml.

Like-named read-outs stand apart in the source and are kept apart here. Some results are limits rather than exact numbers.

As for `C[C@@H]1CC[C@@]2(NC1)O[C@H]1C[C@H]3[C@@H]4CC=C5C[C@@H](O[C@@H]6O[C@H](CO)[C@@H](O[C@@H]7O[C@@H](C)[C@H](O)[C@@H](O)[C@H]7O)[C@H](O)[C@H]6O[C@@H]6O[C@@H](C)[C@H](O)[C@@H](O)[C@H]6O)CC[C@]5(C)[C@H]4CC[C@]3(C)[C@H]1[C@@H]2C` [Solamargine, solamargine], the “time to immobilization of sperm” value in assay [1] (solamargine 1 mg/ml) was at most 15 s. The “effect on spermatozoa (words)” value in assay [1] is recorded as “inhibit human spermatozoal motility”; in assay [1] (listed as solamargine), “dead intact spermatozoa”. In addition, the viability at 2.4 µM was found to be 24 ± 2.2% in assay [2] (1.1 μM/L galactose); 24 ± 2.9% in assay [2] (1.1 μM/L lactose); 26 ± 2.1% in assay [2] (1.1 μM/L rhamnose); 25 ± 2.6% in assay [2] (no carbohydrate (first line)); 24 ± 4% in assay [2] (no carbohydrate (second line, with rhamnose)).
